Source: ChEMBL document CHEMBL6074630, “Discovery of potent LRRK2 inhibitors by ensemble virtual screening strategy and bioactivity evaluation” (Eur J Med Chem, 2024)
pIC50: −log10 of the molar value. The source made the active and inactive calls. The calls are words filed in the database; no cut-off is given here.

Assays:
Danio rerio [1] = species on record: Danio rerio; assay: Neuroprotective activity against 6-OHDA-induced neurotoxicity in wild type Zebrafish AB larvae assessed as increase in travel distance at high velocity at 12.5 uM treated with compound from 3 days post fertilization and measured after 4 days; type: functional, organism-based; details: time 4.0 day
Danio rerio [2] = species on record: Danio rerio; assay: Neuroprotective activity against 6-OHDA-induced neurotoxicity in wild type Zebrafish AB larvae assessed as increase of total movement distance at 12.5 uM treated with compound from 3 days post fertilization and measured after 4 days; type: functional, organism-based; details: time 4.0 day
[3] = Toxicity in wild type Zebrafish AB larvae assessed as effect on survival rate at 12.5 to 100 uM administered from 3 days post fertilization and measured after 96 hrs; set-up: species or system Danio rerio; details: in vivo, dose 12.5-100 µM
[4] = target: T1, Leucine-rich repeat serine/threonine-protein kinase 2 (Homo sapiens, UniProt Q5S007); assay: Inhibition of wild type LRRK2 (unknown origin) using LRRKtide as substrate incubated for 60 mins in presence of ATP by ADP-Glo reagent based assay
[5] = system: Leucine-rich repeat serine/threonine-protein kinase 2 (Homo sapiens), Q5S007 [G2019S]; assay: (§1) Inhibition of 3xFlag-Puro-tagged human LRRK2 G2019S mutant phosphorylation at Ser935 residue overexpressed in HEK293T cells incubated for 24 hrs by SDS-PAGE analysis; type: cell-based
[6] = target: T2, Leucine-rich repeat serine/threonine-protein kinase 2 (Homo sapiens, UniProt Q5S007, G2019S); assay: as §1; type: cell-based
[7] = target: T1, Leucine-rich repeat serine/threonine-protein kinase 2; assay: Inhibition of 3xFlag-Puro-tagged wildtype human LRRK2 phosphorylation at Ser935 residue overexpressed in HEK293T cells incubated for 24 hrs by SDS-PAGE analysis; type: cell-based
[8] = Toxicity in wild type Zebrafish AB larvae administered from 3 days post fertilization and measured after 96 hrs; set-up: species or system Danio rerio; details: in vivo
[9] = system: Leucine-rich repeat serine/threonine-protein kinase 2 (Homo sapiens), Q5S007 [G2019S]; assay: Inhibition of LRRK2 G2019S mutant (unknown origin) using LRRKtide as substrate at 10 uM incubated for 60 mins in presence of ATP by ADP-Glo reagent based assay relative to control
[10] = target: T2, Leucine-rich repeat serine/threonine-protein kinase 2; assay: Inhibition of LRRK2 G2019S mutant (unknown origin) using LRRKtide as substrate incubated for 60 mins in presence of ATP by ADP-Glo reagent based assay
[11] = target: T1, Leucine-rich repeat serine/threonine-protein kinase 2; assay: Inhibition of wild type LRRK2 (unknown origin) using LRRKtide as substrate at 10 uM incubated for 60 mins in presence of ATP by ADP-Glo reagent based assay relative to control
Danio rerio [12] = species on record: Danio rerio; assay: Neuroprotective activity against 6-OHDA-induced neurotoxicity in wild type Zebrafish AB larvae assessed as increase in total swimming distance at 150 uM treated with compound from 3 days post fertilization and measured after 4 days; type: functional, organism-based; details: time 4.0 day
Danio rerio [13] = species on record: Danio rerio; assay: Neuroprotective activity against 6-OHDA-induced neurotoxicity in wild type Zebrafish AB larvae assessed as improvement in swimming behavior at 150 uM treated with compound from 3 days post fertilization and measured after 4 days; type: functional, organism-based; details: time 4.0 day
Danio rerio [14] = species on record: Danio rerio; assay: Neuroprotective activity against 6-OHDA-induced neurotoxicity in wild type Zebrafish larvae AB assessed as increase in travel distance at high velocity at 12.5 to 50 uM treated with compound from 3 days post fertilization and measured after 4 days; type: functional, organism-based; details: dose 12.5-50 µM, time 4.0 day
[15] = target: T1, Leucine-rich repeat serine/threonine-protein kinase 2; assay: Inhibition of 3xFlag-Puro-tagged wildtype human LRRK2 phosphorylation at Ser935 residue overexpressed in HEK293T cells at 10 uM incubated for 24 hrs by SDS-PAGE analysis relative to control; type: cell-based
[16] = system: Leucine-rich repeat serine/threonine-protein kinase 2 (Homo sapiens), Q5S007 [G2019S]; assay: Inhibition of 3xFlag-Puro-tagged human LRRK2 G2019S mutant phosphorylation at Ser935 residue overexpressed in HEK293T cells at 10 uM incubated for 24 hrs by SDS-PAGE analysis relative to control; type: cell-based
Danio rerio [17] = species on record: Danio rerio; assay: Neuroprotective activity against 6-OHDA-induced neurotoxicity in wild type Zebrafish AB larvae assessed as increase in travel distance at high velocity at 50 uM treated with compound from 3 days post fertilization and measured after 4 days; type: functional, organism-based; details: time 4.0 day
Danio rerio [18] = species on record: Danio rerio; assay: Neuroprotective activity against 6-OHDA-induced neurotoxicity in wild type Zebrafish AB larvae assessed as increase in travel distance at high velocity treated with compound from 3 days post fertilization and measured after 4 days; type: functional, organism-based; details: dose 12.5-50 µM, time 4.0 day

Sequence of Leucine-rich repeat serine/threonine-protein kinase 2 (Homo sapiens), Q5S007 [G2019S] (Q5S007 whole entry G2019S): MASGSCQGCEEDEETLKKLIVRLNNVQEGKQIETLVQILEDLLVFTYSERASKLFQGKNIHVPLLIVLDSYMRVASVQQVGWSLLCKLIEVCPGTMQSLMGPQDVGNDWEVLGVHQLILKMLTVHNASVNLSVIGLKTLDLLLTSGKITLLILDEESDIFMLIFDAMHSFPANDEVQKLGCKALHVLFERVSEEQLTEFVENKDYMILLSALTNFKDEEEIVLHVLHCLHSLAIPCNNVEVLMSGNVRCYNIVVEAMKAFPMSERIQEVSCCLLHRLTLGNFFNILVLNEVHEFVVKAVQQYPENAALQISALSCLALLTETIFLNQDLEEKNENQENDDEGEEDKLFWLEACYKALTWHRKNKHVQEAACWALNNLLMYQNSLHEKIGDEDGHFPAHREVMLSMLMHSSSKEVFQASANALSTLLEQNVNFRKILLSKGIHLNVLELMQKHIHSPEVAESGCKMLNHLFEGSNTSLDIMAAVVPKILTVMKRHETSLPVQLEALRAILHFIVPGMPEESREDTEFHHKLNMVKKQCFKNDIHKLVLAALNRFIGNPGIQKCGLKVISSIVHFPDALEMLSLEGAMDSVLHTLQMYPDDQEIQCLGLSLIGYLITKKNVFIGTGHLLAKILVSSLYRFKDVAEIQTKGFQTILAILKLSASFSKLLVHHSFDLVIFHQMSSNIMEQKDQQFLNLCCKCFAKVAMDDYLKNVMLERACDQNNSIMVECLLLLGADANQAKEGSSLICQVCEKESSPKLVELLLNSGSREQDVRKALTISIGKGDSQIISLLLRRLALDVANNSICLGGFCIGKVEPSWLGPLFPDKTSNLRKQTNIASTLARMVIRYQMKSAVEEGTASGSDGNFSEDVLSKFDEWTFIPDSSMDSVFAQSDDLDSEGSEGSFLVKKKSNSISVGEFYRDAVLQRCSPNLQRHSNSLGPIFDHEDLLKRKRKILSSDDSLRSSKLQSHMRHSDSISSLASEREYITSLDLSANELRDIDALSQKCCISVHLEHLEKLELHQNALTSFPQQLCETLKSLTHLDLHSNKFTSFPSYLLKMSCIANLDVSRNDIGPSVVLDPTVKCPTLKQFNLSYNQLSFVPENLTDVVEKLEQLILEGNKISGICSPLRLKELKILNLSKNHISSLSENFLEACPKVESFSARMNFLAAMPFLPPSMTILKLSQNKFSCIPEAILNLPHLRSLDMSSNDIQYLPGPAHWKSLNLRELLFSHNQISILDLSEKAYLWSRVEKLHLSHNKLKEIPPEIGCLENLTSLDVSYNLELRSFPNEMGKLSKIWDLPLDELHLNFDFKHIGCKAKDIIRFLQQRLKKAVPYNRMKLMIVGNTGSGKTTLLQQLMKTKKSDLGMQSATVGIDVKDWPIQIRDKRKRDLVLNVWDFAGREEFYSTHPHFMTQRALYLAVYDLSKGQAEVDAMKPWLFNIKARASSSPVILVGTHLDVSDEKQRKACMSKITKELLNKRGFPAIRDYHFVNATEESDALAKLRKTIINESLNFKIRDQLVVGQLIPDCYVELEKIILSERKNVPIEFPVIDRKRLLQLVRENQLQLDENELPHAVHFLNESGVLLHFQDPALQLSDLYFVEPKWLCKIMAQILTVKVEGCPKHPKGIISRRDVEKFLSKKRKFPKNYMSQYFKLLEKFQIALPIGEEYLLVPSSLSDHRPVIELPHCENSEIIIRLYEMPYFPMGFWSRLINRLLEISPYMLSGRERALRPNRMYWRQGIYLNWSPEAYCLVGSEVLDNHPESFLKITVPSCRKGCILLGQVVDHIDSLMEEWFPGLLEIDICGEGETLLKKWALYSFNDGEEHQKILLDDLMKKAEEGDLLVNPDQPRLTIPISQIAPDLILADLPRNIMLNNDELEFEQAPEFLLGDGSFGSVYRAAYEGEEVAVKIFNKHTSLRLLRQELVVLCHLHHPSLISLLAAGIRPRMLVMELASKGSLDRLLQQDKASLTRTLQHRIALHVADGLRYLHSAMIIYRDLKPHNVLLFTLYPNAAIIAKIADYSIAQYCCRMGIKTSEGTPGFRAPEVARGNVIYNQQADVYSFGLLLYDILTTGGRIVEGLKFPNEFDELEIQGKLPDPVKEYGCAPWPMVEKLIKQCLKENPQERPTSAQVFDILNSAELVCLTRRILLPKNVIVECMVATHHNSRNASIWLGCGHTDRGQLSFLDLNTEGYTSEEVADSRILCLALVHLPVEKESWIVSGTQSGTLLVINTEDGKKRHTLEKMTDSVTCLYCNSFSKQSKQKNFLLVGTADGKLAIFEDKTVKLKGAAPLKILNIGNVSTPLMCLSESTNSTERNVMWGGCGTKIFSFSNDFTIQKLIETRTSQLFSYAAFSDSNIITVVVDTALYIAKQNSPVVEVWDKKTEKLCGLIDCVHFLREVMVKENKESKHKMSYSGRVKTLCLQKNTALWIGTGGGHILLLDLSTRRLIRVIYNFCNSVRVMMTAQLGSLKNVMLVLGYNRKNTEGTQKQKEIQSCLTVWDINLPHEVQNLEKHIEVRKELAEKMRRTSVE
T2 sequence (Q5S007 whole entry G2019S): as above
T1 sequence (Q5S007 whole entry): as the sequence (Q5S007 whole entry G2019S) above, with S2019G counted along it

With `COc1cc(C(=O)N2CCC(N3CCN(C)CC3)CC2)ccc1Nc1ncc2c(n1)N(C)c1ccccc1C(=O)N2C` the Activity (Danio rerio [1]) was “Active”, the Activity (Danio rerio [2]) was “Active” and the Activity [3] was “Toxic”. For the same compound, the pIC50 [4] was 8.51, the inhibition [5] was “Dose-dependent-effect” and the pIC50 [6] was 7.66. For the same compound, the pIC50 [7] was 7.77, the inhibition [7] was “Dose-dependent-effect” and the LC50 at 96 h [8] was over 100 µM.
With `CNC(=O)c1sc2ccc(NC(=O)c3n[nH]c4ccccc34)cc2c1OC` the pIC50 [4] was 4.30, the inhibition [9] was over 50% and the pIC50 [10] was 5.68. The inhibition [11] was over 50%.
Work on `c1ccc2c(c1)ncn1nc(-c3cc(C4CC4)[nH]n3)nc21` yielded a pIC50 [4] of 5.15, an inhibition [9] of over 50% and a pIC50 [10] of 5.25. It also gave an inhibition [11] of over 50%.
For `N[C@@H](Cc1ccc(O)c(O)c1)C(=O)O`, the Activity (Danio rerio [12]) was “Active” and the Activity (Danio rerio [13]) was “Active”.
In the case of `c1cc(OCCN2CCCCC2)cc(-c2n[nH]c3ccc(-c4nnc[nH]4)cc23)c1`, the Activity (Danio rerio [14]) was “inactive”, the inhibition [15] was over 80% and the inhibition [5] was “Dose-dependent-effect”. For the same compound, the inhibition [7] was “Dose-dependent-effect”, the inhibition [9] was over 80% and the inhibition [16] was over 60%. For the same compound, the inhibition [11] was over 80%.
In the case of `CC[C@](C)(Nc1ccnc(-c2c[nH]c3ncccc23)n1)C(=O)NCC(F)(F)F`, the Activity (Danio rerio [17]) was “Active”, the Activity [3] was “Toxic” and the Activity (Danio rerio [18]) was “Dose-dependent-effect”. The inhibition [15] was over 80%, the pIC50 [4] was 5.87 and the inhibition [5] was “Dose-dependent-effect”. The pIC50 [6] was 6.47, the pIC50 [7] was 5.78 and the inhibition [7] was “Dose-dependent-effect”. It also gave an inhibition [9] of over 80%, a pIC50 [10] of 6.66 and an inhibition [16] of over 60%. The LC50 at 96 h [8] was over 100 µM and the inhibition [11] was over 80%.
With `Fc1ccc(-c2n[nH]cc2/C=N\Nc2nc3ccccc3[nH]2)cc1` the pIC50 [4] was 5.51, the inhibition [9] was over 50% and the pIC50 [10] was 5.31. It also gave an inhibition [11] of over 50%.
`Cn1cccc1-c1cc(C(=O)N/N=C2/C(=O)Nc3ccccc32)[nH]n1` gave a pIC50 [4] of 4.40, an inhibition [9] of over 50% and a pIC50 [10] of 5.44. It also gave an inhibition [11] of over 50%.
In the case of `Cl.c1cc(OCCN2CCCCC2)cc(-c2n[nH]c3ccc(-c4nc[nH]n4)cc23)c1`, the Activity [3] was “Toxic”, the pIC50 [4] was 8.02 and the pIC50 [6] was 7.31. The pIC50 [7] was 7.57, the pIC50 [10] was 7.65 and the LC50 at 96 h [8] was over 100 µM.
For `O=C(Nc1n[nH]c2ccccc12)c1cc(-c2cccnc2)n[nH]1`, the inhibition [15] was over 80%, the pIC50 [4] was 6.10 and the inhibition [5] was “Dose-dependent-effect”. The pIC50 [6] was 6.22, the pIC50 [7] was 5.92 and the inhibition [7] was “Dose-dependent-effect”. The inhibition [9] was over 80%, the pIC50 [10] was 6.25 and the inhibition [16] was over 60%. It also gave an inhibition [11] of over 80%.
